What was measured:
[1] = system: Normal human dermal fibroblasts (NB1RGB); assay: Glutathione production promotive action test (dermal fibroblasts); assay type: cell-based; conditions: 24 hours
Procedure: Normal human dermal fibroblasts (NB1RGB) were cultured using α-modified Eagle's minimum essential medium (α-MEM) containing 10% FBS, and then the cells were collected by a trypsin treatment. The collected cells were diluted with α-MEM containing 10% FBS to a cell density of 2.0×10^5 cells/mL, then seeded with 200 μL per well in a 48-well plate, and cultured for 48 hours.
After culturing, the medium was removed, 200 μL of each of test samples (Samples 1 to 3, see Table 14 below for final concentrations) dissolved in Dulbecco's modified Eagle's medium (DMEM) containing 1% FBS was added to each well, and culturing was further performed for 24 hours. As a control, culturing was performed in the same manner using DMEM containing 1% FBS to which no test sample was added. After the culturing was completed, the medium was removed from each well, and the cells were washed with 400 μL of PBS(−) buffer solution and then lysed using 150 μL of M-PER (available from PIERCE).
Quantitative determination of total glutathione was performed using 100 μL of the lysed cells. That is, 100 μL of lysed cell extract, 50 μL of 0.1 mol/L phosphate buffer solution, 25 μL of 2 mmol/L NADPH, and 25 μL of 3.2 unit/mL glutathione reductase were added to a 96-well plate and heated at 37° C. for 10 minutes, then 25 μL of 10 mmol/L 5,5′-dithiobis(2-nitrobenzoic acid) was added, and the absorbance at a wavelength of 412 nm was measured until 5 minutes later to determine ΔOD/min. The total glutathione concentration was calculated based on a calibration curve created using oxidized glutathione (available from FUJIFILM Wako Pure Chemical Corporation). After correcting the obtained value to the glutathione value per total protein amount, the glutathione production promotion rate (%) was calculated using the following equation.
Terms in the equation represent the following respective ones. • A: Glutathione amount per total protein amount without sample addition • B: Glutathione amount per total protein amount with test sample addition

FLG mRNA = assay: Filaggrin (FLG) mRNA expression promotive action test; assay type: cell-based, human; conditions: NHEK, 24 hours, corrected with GAPDH
Procedure: Normal human neonatal epidermal keratinocytes (NHEK) were precultured using normal human epidermal keratinocyte growth medium (KGM), and the cells were collected by a trypsin treatment. The collected cells were diluted with KGM to a cell density of 15×10^4 cells/mL, then seeded with 2 mL portions in a 6-well plate (30×10^4 cells/well), and cultured overnight under conditions of 37° C. and 5% CO2. After culturing, the medium was replaced with normal human epidermal keratinocyte basal medium (KBM, the above KGM without addition of growth additives (hEGF, BPE, insulin, antibacterial agents, hydrocortisone)), and culturing was further performed for 24 hours.
After culturing for 24 hours, the medium was removed, and 2 mL of each of test samples (Samples 1 to 3, see Table 18 below for final concentrations) dissolved in KBM was added to each well, and culturing was performed under conditions of 37° C. and 5% CO2 for 24 hours. As a control, culturing was performed in the same manner using KBM to which no sample was added. After culturing, the medium was removed, total RNA was extracted using ISOGEN II (available from NIPPON GENE CO., LTD.), each RNA amount was measured using a spectrophotometer, and the total RNA was prepared so as to be 150 ng/μL.
For FLG and GAPDH as an internal standard, the expression levels of mRNA were measured using the above total RNA as a template. Detection was performed through a two-step real-time RT-PCR reaction using a real-time PCR device, Thermal Cycler Dice Real Time System III (available from Takara Bio Inc.), with PrimeScript™ RT Master Mix (Perfect Real Time) (available from Takara Bio Inc.) and TB Green® Fast qPCR Mix (available from Takara Bio Inc.). Primers available from Takara Bio Inc. were used. The expression level of FLG mRNA was obtained as a value corrected with a value of GAPDH based on total RNA preparations prepared from cells cultured “with test sample addition” and “without sample addition.” From the obtained values, the FLG mRNA expression promotion rate (%) was calculated using the following equation.
Terms in the equation represent the following respective ones. • A: Corrected value with test sample addition • B: Corrected value without sample addition

SMILES | Glutathione production promotion rate ([1]; 1000 μmol/L) [%] | FLG mRNA expression promotion rate (FLG mRNA; 25 μmol/L) [%] | Glutathione production promotion rate ([1]; 62.5 μmol/L) [%] | FLG mRNA expression promotion rate (FLG mRNA; 100 μmol/L) [%]
O=C(O)CCc1ccccc1 [Sample 3, 3-phenylpropionic acid] | 129.9 | 196.6 | – | –
O=C(O)CCc1ccc(O)c(O)c1 [Sample 1, 3,4-Dihydroxyhydrocinnamic acid] | – | 197.2 | 125.8 | 342.0
O=C(O)CCc1ccc(O)cc1 [Sample 2, 3-(4-Hydroxyphenyl)propionic acid] | 131.7 | 168.2 | – | 129.8

— patent publication US20240252456A1, “ORAL COMPOSITION, SKIN COSMETIC AND HAIR COSMETIC” (MARUZEN PHARMACEUTICALS CO., LTD., priority 2021, published 2024)
